pIC50: −log10 of the molar value. Where two headings read alike, the source gives them in different places.
What was measured:
GSK-3 [1] = molecular target: T1, GSK-3 (Leishmania major, UniProt Q4QE15); experiment: Species specificity: recombinant tagged GSK-3 orthologue kinase assay; type: biochemical, Leishmania majo
T1 construct: made in house
From the text: (§1) Given the strong conservation of GSK-3 across evolution and the surprising selectivity of the compounds according to the present invention towards PfGSK-3 versus mammalian GSK-3, a selection of 12 GSK-3 orthologues of various species chosen on the "tree of life" analyzed. The species belong to the Apicomplexa (P. falciparum, P. vivax, P. knowlesi and P. berghei (Gardner, M.J. et al. Genome sequence of the human malaria parasite Plasmodium falciparum. Nature 419, 498-511 (2002); Carlton, J.M. et al. Comparative genomics of the neglected human malaria parasite Plasmodium vivax. Nature 455, 799-803 (2008); Pain, A. et al. The genome of the simian and human malaria parasite Plasmodium knowlesi. Nature 455, 799-803 (2008).). Toxoplasma gondii (Qin, C.L., Tang, J. and Kim, K. Cloning and in vitro expression of TPK3, a Toxoplasma gondii homologue of shaggy/glycogen synthase kinase-3 kinases. Mol. Biochem. Parasitol. 93, 273-283 (1998)), Cryptosporidium parvum.
(§2) Following PCR amplification from cDNA libraries or direct synthesis based on databases sequences, the GSK-3 genes were inserted in appropriate expression vectors and recombinant, tagged kinases were expressed, affinity purified and assayed in the presence of up to 10-100µM of each compound of formula (I) according to the present invention and a selection of the PfGSK-3 inhibitors.

GSK-3 [2] = molecular target: T2, GSK-3 (Plasmodium falciparum, UniProt O77344); experiment: as above; type: biochemical
T2 construct: made in house
From the text: as §1, §2

GSK-3 [3] = molecular target: T3, GSK-3 (Dictyostelium discoideum, UniProt P51136); experiment: as above; type: biochemical
T3 construct: made in house
T3 sequence (P51136 whole entry): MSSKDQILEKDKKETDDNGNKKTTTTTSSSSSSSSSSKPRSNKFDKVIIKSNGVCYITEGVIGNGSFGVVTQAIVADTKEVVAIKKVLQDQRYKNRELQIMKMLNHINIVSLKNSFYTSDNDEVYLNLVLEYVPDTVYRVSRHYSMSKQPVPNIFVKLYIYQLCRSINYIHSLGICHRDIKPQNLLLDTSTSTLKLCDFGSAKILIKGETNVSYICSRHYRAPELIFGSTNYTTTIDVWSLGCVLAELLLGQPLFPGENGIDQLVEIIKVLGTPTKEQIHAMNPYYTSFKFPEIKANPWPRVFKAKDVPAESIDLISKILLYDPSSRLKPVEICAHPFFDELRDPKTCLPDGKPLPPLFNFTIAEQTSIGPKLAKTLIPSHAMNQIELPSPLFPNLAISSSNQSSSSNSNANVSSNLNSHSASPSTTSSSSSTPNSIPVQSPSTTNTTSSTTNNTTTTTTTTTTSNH
From the text: as §1, §2

GSK-3 α = molecular target: T4, GSK-3 α (Homo sapiens, UniProt P49840); experiment: as above; type: biochemical; conditions: calculated from dose-response curves; -(100) taken as no inhibition at 100
T4 construct: made in house
T4 sequence (P49840 whole entry): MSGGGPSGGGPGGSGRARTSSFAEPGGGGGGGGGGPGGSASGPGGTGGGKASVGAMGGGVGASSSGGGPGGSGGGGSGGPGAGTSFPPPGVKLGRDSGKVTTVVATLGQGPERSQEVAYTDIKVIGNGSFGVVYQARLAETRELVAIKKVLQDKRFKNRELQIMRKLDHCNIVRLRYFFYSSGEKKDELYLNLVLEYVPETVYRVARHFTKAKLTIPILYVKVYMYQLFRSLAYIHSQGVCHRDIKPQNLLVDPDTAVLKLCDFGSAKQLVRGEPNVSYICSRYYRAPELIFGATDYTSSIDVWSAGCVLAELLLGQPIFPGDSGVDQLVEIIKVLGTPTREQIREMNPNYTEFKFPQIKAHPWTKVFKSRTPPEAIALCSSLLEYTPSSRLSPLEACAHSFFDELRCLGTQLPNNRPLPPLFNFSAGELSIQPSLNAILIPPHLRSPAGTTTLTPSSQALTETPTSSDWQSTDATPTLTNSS
From the text: as §1, §2

GSK-3 α/β = experiment: as above; type: biochemical; conditions: calculated from dose-response curves; -(100) taken as no inhibition at 100; read-out: IC50 Sus scrofa (GSK-3 α/β)
From the text: as §1, §2

PfGSK-3 = molecular target: T5, PfGSK-3 (Plasmodium falciparum, UniProt O77344); experiment: Kinase assay with recombinant (His)6-tagged PfGSK3, GS-1 peptide and [γ-33P] ATP; type: biochemical; conditions: for anti-PfGSK-3 IC50 values: result in words
T5 construct: His6; made in house; host or cells: Escherichia coli TOP 10
T5 sequence (O77344 1-440): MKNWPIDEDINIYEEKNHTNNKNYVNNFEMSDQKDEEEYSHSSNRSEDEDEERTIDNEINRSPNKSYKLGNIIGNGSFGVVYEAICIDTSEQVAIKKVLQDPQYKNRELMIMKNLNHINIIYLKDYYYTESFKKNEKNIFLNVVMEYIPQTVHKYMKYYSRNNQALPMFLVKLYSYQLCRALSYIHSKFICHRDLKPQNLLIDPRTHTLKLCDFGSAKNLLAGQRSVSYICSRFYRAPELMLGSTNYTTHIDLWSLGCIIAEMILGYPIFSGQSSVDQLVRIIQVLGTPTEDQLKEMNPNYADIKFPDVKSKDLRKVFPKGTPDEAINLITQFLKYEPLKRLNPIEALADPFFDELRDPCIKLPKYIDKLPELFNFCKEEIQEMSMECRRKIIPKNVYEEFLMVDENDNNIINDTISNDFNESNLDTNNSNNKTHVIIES
Experimental: Escherichia coli strain (TOP 10) containing a plasmid encoding PfGSK3 with six histidines (pBAD-Thio-TOPO, Invitrogen) were cultured into 500 ml of LB medium containing 100 µg/ml ampicillin, at 37°C, under shaking (250 rpm) until OD600 of 0.5 was reached. Expression was induced with 0.5 ml of 20% arabinose (0.02% final concentration). The culture was grown at 37°C with shaking for 4 hours. Cells were harvested by centrifugation at 9000 rpm for 10 min. The bacterial pellet was stored frozen at -80°C until further processing. For proteins extraction, pellet was resuspended in 10 ml of lysis buffer (50 mM NaH2PO4 pH 8.0, 300 mM NaCl, 10 mM imidazole) with the addition of protease inhibitors (complete EDTA-free, Roche) and lysozyme ([…] final). Cells were disrupted by sonication and the cell lysate was centrifuged at 24000 rpm for 30 min at 4°C. The recombinant PfGSK3 protein was purified by Immobilized Metal Affinity Chromatography according to a batch procedure on 1 ml of Nickel affinity resin (Ni-NTA agarose beads, Qiagen). Beads were washed four times with 10 ml of wash buffer (50 mM NaH2PO4 pH 8.0, 300 mM NaCl, 30 mM imidazole). Protein was eluted with one volume of elution buffer (50 mM NaH2PO4 pH 8.0, 300 mM NaCl, 250 mM imidazole, 10% glycerol).
(§3) Both porcine GSK3 and PfGSK3 were assayed with 40 µM GS-1 peptide, a specific GSK-3 substrate, ([…]pEDEEE, synthesized by the Peptide Synthesis Unit, Institute of Biomolecular Sciences, University of Southampton, U.K.), in buffer A (25 mM Tris-HCl pH 7.5, 10 mM MgC12, 1 mM EGTA, 1 mM DTT, 50 µg heparin/ml, 0.5 mg BSA/ml) in the presence of 15 µM [γ-^33P] ATP (3000 Ci/mmol; 1 mCi/ml) in a final volume of 30 µl. After 30 min. incubation at 30°C, 25 µl aliquots of supernatant were spotted onto 2.5 x 3 cm pieces of Whatman P81 phosphocellulose paper, and, 20 sec. later, the filters were washed five times (for at least 5 min. each time) in 1 % phosphoric acid. The wet filters were counted in the presence of 1 ml ACS (Amersham) scintillation fluid. The kinase activity was expressed in pmoles phosphate incorporated in GS-1 or in percentage of the maximal activity.

[4] = molecular target: Mammalian GSK-3 (GSK-3α/β); experiment: Kinase assay with native porcine GSK3 purified from porcine brain, GS-1 peptide and [γ-33P] ATP; type: biochemical; conditions: for anti-mammalian GSK-3 IC50 values: result in words
Experimental: Porcine GSK3 (GSK-3α/β) was purified from porcine brain by affinity chromatography on immobilized axin according to the protocol described in Primot et al (Protein Expression and Purification 20, 394-404, 2000).
as §3

GSK- 3 β = molecular target: T6, GSK- 3 β (Homo sapiens, UniProt P49841); experiment: Species specificity: recombinant tagged GSK-3 orthologue kinase assay; type: biochemical; conditions: calculated from dose-response curves; -(100) taken as no inhibition at 100
T6 construct: made in house
T6 sequence (P49841 whole entry): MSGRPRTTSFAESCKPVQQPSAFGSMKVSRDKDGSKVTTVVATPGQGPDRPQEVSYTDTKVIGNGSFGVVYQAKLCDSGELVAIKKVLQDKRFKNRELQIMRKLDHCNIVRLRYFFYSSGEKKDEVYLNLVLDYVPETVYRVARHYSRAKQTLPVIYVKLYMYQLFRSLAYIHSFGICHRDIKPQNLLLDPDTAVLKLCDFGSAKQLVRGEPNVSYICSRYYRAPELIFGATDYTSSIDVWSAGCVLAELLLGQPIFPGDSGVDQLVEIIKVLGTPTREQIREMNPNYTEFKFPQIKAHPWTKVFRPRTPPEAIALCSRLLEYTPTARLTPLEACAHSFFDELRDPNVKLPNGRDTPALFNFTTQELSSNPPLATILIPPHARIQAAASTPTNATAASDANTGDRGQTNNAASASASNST
From the text: as §1, §2

[5] = unit only in the introducing sentence b99, not in the table, read-out: IC50 PfGSK-3
[6] = -(10) taken as no inhibition at 10, read-out: IC50 Mammalian GSK-3

T1 sequence (Q4QE15 entry or part of it): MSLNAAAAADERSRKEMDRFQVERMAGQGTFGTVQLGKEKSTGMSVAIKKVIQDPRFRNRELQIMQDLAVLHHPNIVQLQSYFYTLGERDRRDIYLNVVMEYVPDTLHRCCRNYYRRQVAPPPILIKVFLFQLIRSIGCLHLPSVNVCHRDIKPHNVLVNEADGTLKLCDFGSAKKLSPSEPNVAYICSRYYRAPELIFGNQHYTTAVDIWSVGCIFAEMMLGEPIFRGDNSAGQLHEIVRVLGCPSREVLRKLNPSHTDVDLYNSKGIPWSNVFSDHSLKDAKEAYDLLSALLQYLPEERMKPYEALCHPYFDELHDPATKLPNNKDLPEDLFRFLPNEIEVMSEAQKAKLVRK

SMILES	pIC50 (GSK-3 [1])	pIC50 (GSK-3 [2])	pIC50 (GSK-3 [3])	pIC50 (GSK-3 α)	pIC50 (GSK-3 α/β)	anti-PfGSK-3 IC50 values (PfGSK-3)	anti-mammalian GSK-3 IC50 values [4]	pIC50 (GSK-3 [2]; read-out: IC50 Plasmodium falciparum, calculated from dose-response curves)	pIC50 (GSK- 3 β)	pIC50 (PfGSK-3; read-out: PfGSK-3 IC50)	pIC50 (PfGSK-3; [5])	pIC50 [4, 6]	pIC50 ([4]; read-out: mammalian GSK-3α/β IC50)
COc1ccccc1-c1c(C#N)c(N)nc2sc(C(=O)c3ccccc3)c(N)c12 [Compound 2, 3,6-diamino-2-benzoyl-4-(2-methoxyphenyl)thieno[2,3-b]pyridine-5-carbonitrile]	< 4.00	5.11	< 4.00	< 4.00	< 4.00	particularly good	do not demonstrate good	–	–	–	–	–	–
N#Cc1c(N)nc2sc(C(=O)c3cccc(Cl)c3)c(N)c2c1-c1ccccc1I [Compound 14, 3,6-diamino-2-(3-chlorobenzoyl)-4-(2-iodophenyl)thieno[2,3-b]pyridine-5-carbonitrile]	< 4.00	–	< 4.00	< 4.00	< 4.00	particularly good	do not demonstrate good	4.00	4.30	–	–	–	–
N#Cc1c(N)nc2sc(C(=O)c3cccc(Cl)c3)c(N)c2c1-c1ccccc1Br [Compound 20, 3,6-diamino-4-(2-bromophenyl)-2-(3-chlorobenzoyl)thieno[2,3-b]pyridine-5-carbonitrile]	< 4.00	6.33	4.10	< 4.00	5.25	particularly good	do not demonstrate good	–	5.40	–	–	–	–
N#Cc1c(N)nc2sc(C(=O)c3cccc(Cl)c3)c(N)c2c1-c1ccccc1Cl [Compound 22, 3,6-diamino-2-(3-chlorobenzoyl)-4-(2-chlorophenyl)thieno[2,3-b]pyridine-5-carbonitrile]	< 4.00	6.39	< 5.00	< 4.00	< 5.00	particularly good	do not demonstrate good	–	5.48	6.33	7.22	< 5.00	< 5.00
N#Cc1cccc(C(=O)c2sc3nc(N)c(C#N)c(-c4ccccc4Cl)c3c2N)c1 [Compound 26, 3,6-diamino-4-(2-chlorophenyl)-2-(3-cyanobenzoyl)thieno[2,3-b]pyridine-5-carbonitrile]	< 4.00	6.68	< 4.00	< 4.60	4.66	particularly good	do not demonstrate good	–	5.09	–	6.30	< 5.00	–
